Results on four substances are retold here after patent US7723467B2, “Antimicrobial compounds” (New England Medical Center Hospitals, Inc., priority 2000, dated 2010).

Like-named read-outs stand apart in the source and are kept apart here. Non-standard residues stand in square brackets, D forms with d. No end group written: not given here.

Holding throughout (format): cell-based
For assay [1], the system named is Escherichia coli NCTC 8196.
Procedure: (§1) The assays are standardized by using a predictable predetermined number of cells, and the lowest observed concentration of the agent that inhibits growth is defined as the minimum inhibitory concentration (MIC).
(§2) Antimicrobial activity, specifically antibacterial activity, was assayed using cells of each of Staphylococcus aureus NCTC 4163, Escherichia coli NCTC 8196, Pseudomonas aeruginosa NCTC 6749, Proteus vulgaris NCTC 4635, and Enterococcus faecalis ATCC 19212. To determine the minimum inhibitory concentration (MIC), the microdilution broth method, well-known to one of ordinary skill in the art of microbiology, was used. Cells of each bacterial strain were collected in the logarithmic phase of growth, and resuspended in nutrient broth. The concentration of colony-forming units (CFU) per milliliter was quantified by measuring absorption of light at 600 nm (A600).
(§3) Peptide samples were dissolved in nutrient broth (pH 7.0) and diluted serially. The sample solution (100 μl) was mixed with the diluted bacterial suspension (100 μl). Mixtures containing 105 bacterial CFU, and from 1% to 0.003% of test peptides, were incubated for 24 h at 37° C. […] The indolicidin antibacterial property with cells of S. aureus was used as a positive control reference.
Assay [2] concerns Candida albicans NCTC 10231.
Procedure: Anti-fungal activity is similarly assayed, using log phase vegetative fungal cells.
(§4) Antifungal activity was assayed using Candida albicans NCTC 10231 as a target fungus. Candida cells in the logarithmic phase of growth were suspended in dextrose broth medium at a density of 10^5 CFU/ml. A mixture of the sample solution (100 μl) and the fungal suspension (100 μl) was incubated for 24 h at 37° C.
Assay [3] relates to Proteus vulgaris NCTC 4635.
Procedure: as §1, §2, §3
Assay [4] concerns microorganisms tested. The assay is described as follows: Antimicrobial activity across the microorganisms tested. Particulars: compared with SP.
Procedure: as §2, §3, §4
Assay [5] has as its system Pseudomonas aeruginosa NCTC 6749.
Procedure: as §1, §2, §3
The test system of assay [6] is Enterococcus faecalis ATCC 19212.
Procedure: as §1, §2, §3
Assay [7] relates to Staphylococcus aureus NCTC 4163.
Procedure: as §1, §2, §3
The test system of assay [8] is microorganism. The assay is described as follows: Mixing experiments of SP with SP antagonist.
Setting [9] is: 100% inhibition of growth, 24 h at 37° C., nutrient broth pH 7.0.
[10] abbreviates: dextrose broth, 24 h at 37° C., turbidity.

Take “Arg-D-Pro-Lys-Pro-Gln-Gln-D-Trp-Phe-D-Trp-Leu-MetNH2 (R[dP]KPQQ[dW]F[dW]LM-NH2; N-terminus assumed; SMILES CSCC[C@H](NC(=O)[C@H](CC(C)C)NC(=O)[C@@H](Cc1c[nH]c2ccccc12)NC(=O)[C@H](Cc1ccccc1)NC(=O)[C@@H](Cc1c[nH]c2ccccc12)NC(=O)[C@H](CCC(N)=O)NC(=O)[C@H](CCC(N)=O)NC(=O)[C@@H]1CCCN1C(=O)[C@H](CCCCN)NC(=O)[C@H]1CCCN1C(=O)[C@@H](N)CCCNC(=N)N)C(N)=O; listed as Homo sapiens) [SEQ ID NO: 2]”: in assay [1] (setting [9]), the “Minimal Inhibitory Concentration MIC (%) E. coli” value came to 0.13%. Also, the “potency against C. albicans relative to SP or bradykinin” value in assay [2] is on record as “approximately 10 times”. Moreover, the “activity compared with indolicidin” value in assay [2] (cells of C. albicans) was “comparable to that of indolicidin”. In addition, in assay [2] (setting [10]), the “Minimal Inhibitory Concentration MIC (%) C. albicans” value is recorded as 0.03%. For the same substance, in assay [3] (setting [9]), the “Minimal Inhibitory Concentration MIC (%) P. vulgaris” value was 0.13%. The “MIC fold higher (weaker potency) on the other bacteria tested” value in assay [4] was 10- to 20 fold. Moreover, the “Minimal Inhibitory Concentration MIC (%) P. aeruginosa” value in assay [5] (setting [9]) came to 0.13%. Further, the “Minimal Inhibitory Concentration MIC (%) E. faecalis” value in assay [6] (setting [9]) was found to be 0.13%. Besides, in assay [7] (setting [9]), the “Minimal Inhibitory Concentration MIC (%) S. aureus” value is recorded as 0.13%.

Regarding “Arg-Pro-Lys-Pro-Gln-Gln-Phe-Phe-Gly-Leu-MetNH2 [SEQ ID NO: 1]”, the “Minimal Inhibitory Concentration MIC (%) E. coli” value in assay [1] (setting [9]) stood at 0.06%. Further, the “antifungal properties against C. albicans” value in assay [2] is “found to have antifungal properties”. The “Minimal Inhibitory Concentration MIC (%) C. albicans” value in assay [2] (setting [10]) was found to be 0.25%. The “Minimal Inhibitory Concentration MIC (%) P. vulgaris” value in assay [3] (setting [9]) turned out to be 0.13%. For the same substance, the “Minimal Inhibitory Concentration MIC (%) P. aeruginosa” value in assay [5] (setting [9]) is on record as 0.13%. Also, the “Minimal Inhibitory Concentration MIC (%) E. faecalis” value in assay [6] (setting [9]) came to 0.13%. Also, in assay [7] (setting [9]), the “Minimal Inhibitory Concentration MIC (%) S. aureus” value is 0.007%. In addition, the “antimicrobial potency compared with indolicidin” value in assay [7] (cells of S. aureus) is reported as “equally potent to indolicidin”. Moreover, in assay [8], the “blocking of the antimicrobial effect by the presence of SP antagonist” value was “not to be blocked”.

Take “Ile-Leu-Pro-Trp-Lys-Trp-Pro-Trp-Trp-Pro-Trp-Arg-Arg-NH2 (ILPWKWPWWPWRR-NH2; listed as Homo sapiens) [Indolicidin, reference compound]”: in assay [1] (setting [9]), the “Minimal Inhibitory Concentration MIC (%) E. coli” value came to 0.007%. Besides, the “Minimal Inhibitory Concentration MIC (%) C. albicans” value in assay [2] (setting [10]) is given as 0.015%. The “Minimal Inhibitory Concentration MIC (%) S. aureus” value in assay [7] (setting [9]) came out at 0.003%.

Consider “RPPGFSPFR [Bradykinin, reference compound]”, for which the “Minimal Inhibitory Concentration MIC (%) E. coli” value in assay [1] (NCTC 8196, 24 h, pH 7) was found to be 0.5%. Further, the “Minimal Inhibitory Concentration MIC (%) C. albicans” value in assay [2] (NCTC 10231, 24 h) amounted to 0.25%. The “Minimal Inhibitory Concentration MIC (%) P. vulgaris” value in assay [3] (NCTC 4635, 24 h, pH 7) stood at 0.5%. Moreover, in assay [5] (NCTC 6749, 24 h, pH 7), the “Minimal Inhibitory Concentration MIC (%) P. aeruginosa” value came to 1.0%. Also, in assay [6] (ATCC 19212, 24 h, pH 7), the “Minimal Inhibitory Concentration MIC (%) E. faecalis” value was over 1%. In assay [7] (NCTC 4163, 24 h, pH 7), the “Minimal Inhibitory Concentration MIC (%) S. aureus” value is 0.5%.
